Target: E1CTD (Monkeypox virus Zaire-96-I-16, UniProt Q8V4Y7)

C[S+](CC[C@H](N)C(=O)O)C[C@H]1O[C@@H](n2cnc3c(N)ncnc32)[C@H](O)[C@@H]1O (stereo partly shown) [SAM]
no detectable binding ability: the E1CTD also shows no detectable binding ability to SAM
